Test results taken from patent US8852876B2, “Label free biosensors and cells” (Corning Incorporated, priority 2008, dated 2014).
Entries after “also recorded” stand apart in the source; their conditions may differ. Where no end group is shown, it is not given here.

Test system: EGF-induced response of quiescent A431 cells
Assay: Effect of compound pretreatment on EGF-induced DMR response
Format: cell-based, human
Settings: not given
Description: Both A431 and CHO-K1 cells were grown in Dulbecco's modified Eagle's medium (DMEM) supplemented with 10% fetal calf serum, 100 μg/ml penicillin, and 100 μg/ml streptomycin. For cell culture, certain numbers of cells (2×10^5 to 1×10^6), either A431 or CHO-K1, were suspended in […] medium were placed in each well of a 96 well Corning Epic Biosensor microplate, and were cultured at 37° C. in air/5% CO2 for certain time until the cell density reached ˜90% and above (unless specified). The resulted cells were termed as “profilerating” cells. The “quiescent” cells were obtained by culturing the profilerating cells of desired confluencies with a medium containing no or little (˜0.1% fetal bovine serum (FBS)) for at least 16 hours.
During the assays, the cells in 100 μl medium were subject to two 25 μl HBSS buffer containing 20 mM HEPES, pH 7.4, each separated by at least 15 minutes before 50 μl stimulus-containing solution was applied. During all these steps, a parallel angular interrogation system was used to monitor the real time kinetics of cellular responses. For compound effect studies, a modified protocol was used which starts with 50 μl medium, and subject to sequential treatment: 25 μl HBSS buffer twice (each separated by at least 15 minutes), 50 μl compound solution and finally 50 μl stimulus-containing solution.

Row | Molecule | Effect of pretreatment on 32 nM EGF-induced response
1 | N#CC(=C(/N)Sc1ccccc1N)/C(C#N)=C(\N)Sc1ccccc1N [U0126] | significantly compressed the amplitudes of both the P-DMR and N-DMR signals with a delayed time τ
2 | C[S+]([O-])c1ccc(-c2nc(-c3ccncc3)c(-c3ccc(F)cc3)[nH]2)cc1 (centres unmarked) [SB203580] | only led to a partial attenuation

Same assay, conditions: quiescent A431 cells; 32 nM EGF

Row | Molecule | Effect of pretreatment on 32 nM EGF-induced response
3 | COC(=O)[C@@]1(OC)C[C@H]2O[C@]1(C)n1c3ccccc3c3c4c(c5c6ccccc6n2c5c31)C(=O)N(C)C4 [KT5823] | little effect on the response
4 | CCCCOc1cc(CC2CNC(=O)N2)ccc1OC (centres unmarked) [Ro 20-1724] | None of these inhibitors had an obvious effect on the responses
5 | R(−)-rolipram | None of these inhibitors had an obvious effect on the responses
6 | Oc1ccc(-c2nc(-c3ccc(F)cc3)c(-c3ccncc3)[nH]2)cc1 [SB20219] | only led to a partial attenuation
7 | Cc1[nH]c(=O)c(C#N)cc1-c1ccncc1 [milrinone] | None of these inhibitors had an obvious effect on the responses
8 | CN(C(=O)CCCOc1ccc2[nH]c(=O)ccc2c1)C1CCCCC1 [cilostamide] | None of these inhibitors had an obvious effect on the responses
9 | CCCCCCOC(=O)[C@]1(O)C[C@@H]2O[C@@]1(C)n1c3ccccc3c3c4c(c5c6ccccc6n2c5c31)C(=O)NC4 [KT 5720] | little effect on the response

Same assay, conditions: starved A431 cells; 8 nM EGF; 30-minute pretreatment; GH 0.5 ng/ml, PD98059 0.1 mM, PP1 1 μM, wortmannin 0.1 μM, DIP 50 μM

Row | Molecule | Effect of pre-treatment on EGF-induced P-DMR and N-DMR signals
10 | COc1cccc(-c2cc(=O)c3ccccc3o2)c1N [PD98059] | significantly reduced both the binding and DMR signals
11 | growth hormone | significantly reduced both the binding and DMR signals

Test system: endogenous GPCRs in A431 cells
Assay: DMR optical biosensor profiling of GPCR agonists
Format: cell-based, human
Settings: fully quiescent A431 cells

Row | Molecule | Dose-dependent switching of optical signature
12 | CC(CCCCC(=O)Nc1ccc(C(F)(F)F)cc1)NCCc1cnc[nH]1 (centres unmarked) [HTMT] | At low doses (<˜40 nM), HTMT dose-dependently resulted in a typical Gi-type optical signature; also recorded: became almost steady (i.e., no obvious DMR); also recorded: switching to a typical Gs-type optical signature
13 | oleoyl-L-α-lysophosphatidic acid [LPA] | typical Gi-type optical signature at low doses of LPA; also recorded: switched to Gq-type optical signature at high doses of LPA

Same assay, conditions: quiescent A431; first class = Gq-type, second = Gs-type, third = Gi-type, fourth = no significant DMR

Row | Molecule | Class of optical signature (DMR) induced by agonist
14 | neuromedin N (IPYIL; Neuromedin N; UniProt P30990 144-148, looked up) [agonist, NTSR1] | did not exhibited any significant DMR signals
15 | Angiotensin II (DRVYIHPF; Angiotensin-2; UniProt P01019 25-32, looked up) [agonist, AGTR1] | did not exhibited any significant DMR signals
16 | CN1CCC(c2c[nH]c3ccc(O)cc23)CC1 [BRL 54443] | did not exhibited any significant DMR signals
17 | Oc1cc2c(cc1O)C(c1ccccc1)CNCC2 (centres unmarked) [SKF38392] | did not exhibited any significant DMR signals
18 | glucagon | did not exhibited any significant DMR signals
19 | apelin 1-13 | did not exhibited any significant DMR signals
20 | NC[C@@H]1O[C@H](C23CC4CC(CC(C4)C2)C3)Cc2c1ccc(O)c2O [A-77636] | did not exhibited any significant DMR signals
21 | CC[C@H](C)[C@H](NC(=O)[C@@H]1CCCN1C(=O)[C@@H](NC(=O)[C@@H](N)Cc1ccccc1)C(C)C)C(=O)N[C@@H](Cc1ccccc1)C(=O)N[C@H](C(=O)N[C@@H](Cc1ccc(O)cc1)C(=O)NCC(=O)N[C@@H](CCC(=O)O)C(=O)N[C@@H](CC(C)C)C(=O)N[C@@H](CCC(N)=O)C(=O)N[C@@H](CCCNC(=N)N)C(=O)N[C@@H](CCSC)C(=O)N[C@@H](CCC(N)=O)C(=O)N[C@@H](CCC(=O)O)C(=O)N[C@@H](CCCCN)C(=O)N[C@@H](CCC(=O)O)C(=O)N[C@@H](CCCNC(=N)N)C(=O)N[C@@H](CC(N)=O)C(=O)N[C@@H](CCCCN)C(=O)NCC(=O)N[C@@H](CCC(N)=O)C(=O)O)[C@@H](C)O [motilin] | did not exhibited any significant DMR signals
22 | Cc1cc(C(C)(C)C)c(O)c(C)c1CC1=NCCN1 [oxymetazoline] | did not exhibited any significant DMR signals
23 | substance P (RPKPQQFFGLM; ends and bridges not checked; UniProt P20366 58-68, looked up) [agonist, TACR1] | did not exhibited any significant DMR signals
24 | apelin 1-17 | did not exhibited any significant DMR signals
25 | interleukin-8 | did not exhibited any significant DMR signals
26 | neuropeptide Y | did not exhibited any significant DMR signals
27 | interferon-γ-inducible protein-10 [IP-10] | did not exhibited any significant DMR signals
28 | dynorphin A (YGGFLRRIRPKLKWDNQ; Dynorphin A(1-17); UniProt P01213 207-223, looked up) [agonist, OPRM1 and OPRK1] | did not exhibited any significant DMR signals
29 | CC(C)NCC(O)c1ccc(O)c(O)c1 (centres unmarked) [isoprenternol] | second class of optical signatures
30 | CCCCC/C=C\C/C=C\C/C=C\C/C=C\CCCC(=O)NCCO [anandamide] | did not exhibited any significant DMR signals
31 | CNC[C@H](O)c1ccc(O)c(O)c1 [epinephrine] | second class of optical signatures
32 | Brc1c(NC2=NCCN2)ccc2nccnc12 [UK14304] | did not exhibited any significant DMR signals
33 | C[C@@H](NC(=O)[C@@H](N)Cc1ccc(O)cc1)C(=O)NCC(=O)N(C)[C@@H](Cc1ccccc1)C(=O)NCCO [DAMGO] | did not exhibited any significant DMR signals
34 | neurokinin A (HKTDSFVGLM; ends and bridges not checked; UniProt P20366 98-107, looked up) [agonist, TACR2] | did not exhibited any significant DMR signals
35 | endothelin-1 (CSCSSLMDKECVYFCHLDIIW; ends and bridges not checked; cysteine pairing not given here; UniProt P05305 53-73, looked up) [agonist, EDNRA and EDNRB] | did not exhibited any significant DMR signals
36 | oleoyl-L-α-lysophosphatidic acid [LPA] | third class of optical signatures

Test system: protease activated receptors PAR1 and PAR2
Assay: not given
Format: cell-based, human
Settings: 40 unit/ml thrombin, 200 nM trypsin; αCD up to 8 mM
Description: Human epidermoid carcinoma A431 cells (American Type Cell Culture) were grown in Dulbecco's modified Eagle's medium (DMEM) supplemented with 10% fetal bovine serum (FBS), 4.5 g/liter glucose, 2 mM glutamine, and antibiotics. ˜3-7.5×10^4 cells at passage 3 to 5 suspended in 200 μl the DMEM medium containing 10% FBS were placed in each well of a 96 well microplate, and were cultured at 37° C. under air/5% CO2 until ˜95% confluency was reached (˜2-4 days).
The compound or PAR agonist solutions were made in 1×HBSS in order to match the refractive index between the cell medium and compound solution, thus minimizing the unwanted effect of bulk index change due to the introduction of compound solution which can temporarily overwhelms any DMR signal as it occurs.

Row | Molecule | Effect of pretreatment on DMR induced by thrombin or trypsin
37 | OC[C@H]1O[C@@H]2O[C@H]3[C@H](O)[C@@H](O)[C@@H](O[C@H]4[C@H](O)[C@@H](O)[C@@H](O[C@H]5[C@H](O)[C@@H](O)[C@@H](O[C@H]6[C@H](O)[C@@H](O)[C@@H](O[C@H]7[C@H](O)[C@@H](O)[C@@H](O[C@H]1[C@H](O)[C@H]2O)O[C@@H]7CO)O[C@@H]6CO)O[C@@H]5CO)O[C@@H]4CO)O[C@@H]3CO [αCD, α-cyclodextrin] | little effect on both agonist-induced DMR responses
38 | methyl-β-cyclodextrin [mβCD] | a dose-dependent alteration of the optical signatures induced by thrombin or trypsin

Same assay, conditions: high doses (>10 mM)

Row | Molecule | Cell detachment
39 | OC[C@H]1O[C@@H]2O[C@H]3[C@H](O)[C@@H](O)[C@@H](O[C@H]4[C@H](O)[C@@H](O)[C@@H](O[C@H]5[C@H](O)[C@@H](O)[C@@H](O[C@H]6[C@H](O)[C@@H](O)[C@@H](O[C@H]7[C@H](O)[C@@H](O)[C@@H](O[C@H]1[C@H](O)[C@H]2O)O[C@@H]7CO)O[C@@H]6CO)O[C@@H]5CO)O[C@@H]4CO)O[C@@H]3CO [αCD, α-cyclodextrin] | resulted in significant amounts of cells detached from the surface of the biosensors

Test system: protease activated receptors PAR1 and PAR2
Assay: Fluo-3 Ca2+ mobilization assay with PAR agonists
Format: cell-based, human
Settings: cholesterol depletion; αCD up to 8 mM
Description: A431 at passage 3 to 5 were grown in Costar™ 96 well clear cell culture microplates until ˜95% confluency, washed twice and starved overnight with the DMEM only, washed with 1×HBSS (1× regular Hank's balanced salt solution, 20 mM HEPES buffer, pH 7.0) in the presence of 2.5 mM probenicid, and labeled in the same buffer containing 4 μM Fluo-3 for 1 hour at room temperature. The cells were then washed twice with buffer, maintained with 100 μl 1×HBSS containing 2.5 mM probenicid. The assay was initiated by transferring 50 μl PAR agonist solution to the cell plate, and calcium signal was recorded over 6 minutes with a 6 sec interval using HTS7000 BioAssay Reader (PerkinElmer Life Science, Boston, Mass.). The assays were carried out at room temperature in order to allow direct comparison with optical sensing data.

Row | Molecule | Effect of pretreatment on [Ca2+]i elevation mediated by trypsin or thrombin
40 | OC[C@H]1O[C@@H]2O[C@H]3[C@H](O)[C@@H](O)[C@@H](O[C@H]4[C@H](O)[C@@H](O)[C@@H](O[C@H]5[C@H](O)[C@@H](O)[C@@H](O[C@H]6[C@H](O)[C@@H](O)[C@@H](O[C@H]7[C@H](O)[C@@H](O)[C@@H](O[C@H]1[C@H](O)[C@H]2O)O[C@@H]7CO)O[C@@H]6CO)O[C@@H]5CO)O[C@@H]4CO)O[C@@H]3CO [αCD, α-cyclodextrin] | had no effect on both trypsin and thrombin-induced responses
41 | methyl-β-cyclodextrin [mβCD] | a dose-dependent suppression of [Ca^2+]i elevation mediated by either trypsin or thrombin
